Experimental data reported in US12636290B2, “BET inhibitors for modulating DUX4 expression in FSHD” (Saint Louis University, priority 2018, dated 2026).
Structures can show the parent of a compound that is named as a salt. Where two headings read alike, the source gives them in different places.

System: DUX4 expression (surrogate marker MBD3L2)
Experiment: Screening: qPCR analysis of DUX4 target gene MBD3L2 in differentiating MB200 FSHD2 muscle cells
Type: cell-based
Details: Homo sapiens, 40 hours, DUX4 expression inferred from surrogate marker MBD3L2 expression (qPCR, normalized to RPL30)
Experimental: Cells and Cell Culture. Primary human myoblast cell lines, immortalized by retroviral transduction of cyclin-dependent kinase 4 (CDK4) and human telomerase reverse transcriptase (hTERT) (Stadler, et al., 2011), were obtained from the Fields Center at the University of Rochester (world-wide-web at urmc.rochester.edu/fields-center.aspx). Immortalized myoblasts were grown in Ham's F-10 Nutrient Mix (Gibco, Waltham, MA, USA) supplemented with 20% HyClone Fetal Bovine Serum (GE Healthcare Life Sciences, Pittsburgh, PA, USA), 100 U/100 μg penicillin/streptomycin (Gibco), 10 ng/ml recombinant human fibroblast growth factor (Promega Corporation, Madison, WI, USA) and 1 μM dexamethasone (Sigma-Aldrich). Differentiation of myoblasts into myotubes was achieved by switching the fully confluent myoblast monolayer into Dulbecco's Modified Eagle Medium (DMEM) (Gibco) containing 1% horse serum (Gibco), 100 U/100 μg penicillin/streptomycin, 10 μg/ml insulin (Sigma-Aldrich) and 10 μg/ml transferrin (Sigma-Aldrich) (HS/IT media) or DMEM:F12 Nutrient Mixture (1:1, Gibco) supplemented with 2% KnockOut Serum Replacement (Gibco), 100 U/100 μg penicillin/streptomycin, 10 μg/ml insulin and 10 μg/ml transferrin (KSR media) for 2-6 days.
Screening: qPCR analysis of DUX4 target genes MBD3L2. For screening compounds, differentiating MB200 FSHD2 muscle cells were exposed to BET inhibitors at a variety of concentrations for 40 hours to determine the effects of the drugs on DUX4 expression. Cell lysates were prepared using Cells-to-Ct Bulk Lysis Reagents (Invitrogen, Waltham, MA, USA). Gene expression was measured by quantitative polymerase chain reaction (qPCR) was carried out on a QuantStudio 5 (Applied Biosystems, Waltham, MA, USA) using TaqMan Gene Expression Assays (Applied Biosystems) and TaqMan Fast Virus 1-Step Master Mix (Invitrogen). The relative expression levels of DUX4 target gene methyl-CpG binding domain protein 3 like 2 (MBD3L2), was normalized to that of the reference gene ribosomal protein L30 (RPL30), which was included in multiplex (two gene) PCR reactions. TaqMan Gene Expression Assay ID numbers: MBD3L2, Hs00544743_m1; RPL30, Hs00265497_m1. Data is expressed as relative expression with the expression in absence of inhibitors set to one.
Analysis of MBD3L2 expression in cultured FSHD2 cells. DUX4 mRNA is present in very low levels, even in differentiating FSHD2 myoblasts, so DUX4 target gene MBD3L2 was used as a surrogate marker of DUX4 expression. FSHD2 patient derived muscle cells were analyzed to determine whether BET inhibitors affect MBD3L2 expression, indicating a reduction in DUX4 expression.

| Structure (SMILES) | IC50 (read-out: DUX4* MT FSHD2: IC50) | IC50 (read-out: DUX4* MT FSHD2 IC50) |
| --- | --- | --- |
| CN(C)CCOc1ccc(C2CCN(c3ccc(-c4cn(C)c(=O)c5[nH]ccc45)cn3)CC2)cc1 [SLU-2109, 4-{6-[4-(4-(2-(dimethylamino)ethoxy)phenyl)piperidin-1-yl]pyridin-3-yl}-6-methyl-1H-pyrrolo[2,3-c]pyridin-7(6H)-one] | 33 nM | 33 nM |
| CN1CCN(CCOc2ccc(-c3ccc4nc(-c5cn(C)c(=O)c6[nH]ccc56)ccc4c3)cc2)C(C)(C)C1=O [SLU-2280, 6-methyl-4-{6-[4-(2-(2,2,4-trimethyl-3-oxopiperazin-1-yl)ethoxy)phenyl]quinolin-2-yl}-1H-pyrrolo[2,3-c]pyridin-7(6H)-one] | 120 nM | 120 nM |
| CN1CCN(CCOc2ccc(-c3ccc4cc(-c5cn(C)c(=O)c6[nH]ccc56)ccc4n3)cc2)C(C)(C)C1=O [SLU-2241, 6-methyl-4-{2-[4-(2-(2,2,4-trimethyl-3-oxopiperazin-1-yl)ethoxy)phenyl]quinolin-6-yl}-1H-pyrrolo[2,3-c]pyridin-7(6H)-one] | 110 nM | 110 nM |
| C[C@@H]1CCC[C@H](C)N1CCOc1ccc(-c2ccc3nc(-c4cn(C)c(=O)c5[nH]ccc45)ccc3c2)cc1 [SLU-2279, 4-{6-[4-(2-((2R,6S)-2,6-dimethylpiperidin-1-yl)ethoxy)phenyl]quinolin-2-yl}-6-methyl-1H-pyrrolo[2,3-c]pyridin-7(6H)-one] | 420 nM | 420 nM |
| COc1cc(-c2ccc(OCCN3CCN(C)C(=O)[C@H]3C)cc2)ccc1-c1cn(C)c(=O)c2[nH]ccc12 [SLU-2102, (R)-4-{4′-[2-(2,4-dimethyl-3-oxopiperazin-1-yl)ethoxy]-3-methoxy-[1,1′-biphenyl]-4-yl}-6-methyl-1H-pyrrolo[2,3-c]pyridin-7(6H)-one] | 130 nM | 130 nM |
| Cn1cc(-c2ccc(N3CCC4(CCN(C(=O)CO)C4)CC3)nc2)c2cc[nH]c2c1=O [SLU-2127] | 37 nM | 37 nM |
| COc1ccc2cc(-c3cn(C)c(=O)c4[nH]ccc34)ccc2n1 [SLU-2294, 4-(2-methoxyquinolin-6-yl)-6-methyl-1H-pyrrolo[2,3-c]pyridin-7(6H)-one] | 59 nM | 59 nM |
| CN1CCN(CCOc2ccc(-c3ccc4nc(-c5cn(C)c(=O)c6[nH]ccc56)ccc4c3)cc2)CC1=O [SLU-2283, 6-methyl-4-{6-[4-(2-(4-methyl-3-oxopiperazin-1-yl)ethoxy)phenyl]quinolin-2-yl}-1H-pyrrolo[2,3-c]pyridin-7(6H)-one] | 160 nM | 160 nM |
| C[C@@H]1C(=O)N(C)CCN1CCOc1ccc(N2CCN(c3ccc(-c4cn(C)c(=O)c5[nH]ccc45)cn3)CC2)nc1 [SLU-2110, (R)-4-{6-[4-(5-(2-(2,4-dimethyl-3-oxopiperazin-1-yl)ethoxy)pyridin-2-yl)piperazin-1-yl]pyridin-3-yl}-6-methyl-1H-pyrrolo[2,3-c]pyridin-7(6H)-one] | 16 nM | 16 nM |
| Cn1cc(-c2ccc(N3CCC4(CCNCC4)CC3)nc2)c2cc[nH]c2c1=O [SLU-2130, 4-[6-(3,9-diazaspiro[5.5]undecan-3-yl)pyridin-3-yl]-6-methyl-1H-pyrrolo[2,3-c]pyridin-7(6H)-one·hydrochloride] | 120 nM | 120 nM |
| C[C@@H]1C(=O)N(C)CCN1CCOc1cccc(-c2ccc3cc(-c4cn(C)c(=O)c5[nH]ccc45)ccc3n2)c1 [SLU-2301, (R)-4-{2-[3-(2-(2,4-dimethyl-3-oxopiperazin-1-yl)ethoxy)phenyl]quinolin-6-yl}-6-methyl-1H-pyrrolo[2,3-c]pyridin-7(6H)-one] | 13 nM | 13 nM |
| CN1CCN(CCOc2ccc(-c3ccc4cc(-c5cn(C)c(=O)c6[nH]ccc56)ccc4n3)cc2)CC1 [SLU-2288] | 250 nM | 250 nM |
| C[C@@H]1C(=O)N(C)CCN1CCOc1ccc(-c2ccc3cc(-c4c[nH]c(=O)c5[nH]ccc45)ccc3n2)cc1 [SLU-2302, (R)-4-{2-[4-(2-(2,4-dimethyl-3-oxopiperazin-1-yl)ethoxy)phenyl]quinolin-6-yl}-1H-pyrrolo[2,3-c]pyridin-7(6H)-one] | 1800 nM | 1800 nM |
| C[C@@H]1C(=O)N(C)CCN1CCCOc1ccc2cc(-c3cn(C)c(=O)c4[nH]ccc34)ccc2n1 [SLU-2347, (R)-4-{2-[3-(2,4-dimethyl-3-oxopiperazin-1-yl)propoxy]quinolin-6-yl}-6-methyl-1H-pyrrolo[2,3-c]pyridin-7(6H)-one] | 85 nM | 85 nM |
| Cn1cc(-c2ccc3nc(-c4ccc(OCCN5CCC(F)(F)CC5)cc4)ccc3c2)c2cc[nH]c2c1=O [SLU-2285, 4-{2-[4-(2-(4,4-difluoropiperidin-1-yl)ethoxy)phenyl]quinolin-6-yl}-6-methyl-1H-pyrrolo[2,3-c]pyridin-7(6H)-one] | 570 nM | 570 nM |
| Cn1cc(-c2ccc(N3CCC4(CCN(C(=O)CO)CC4)C3)nc2)c2cc[nH]c2c1=O [SLU-2218, 4-{6-[8-(2-hydroxyacetyl)-2,8-diazaspiro[4.5]decan-2-yl]pyridin-3-yl}-6-methyl-1H-pyrrolo[2,3-c]pyridin-7(6H)-one] | 41 nM | 41 nM |
| C#CCN1CCN(CCOc2ccc(-c3ccc4cc(-c5cn(C)c(=O)c6[nH]ccc56)ccc4n3)cc2)CC1=O [SLU-2281, 6-methyl-4-{2-[4-(2-(3-oxo-4-(prop-2-yn-1-yl)piperazin-1-yl)ethoxy)phenyl]quinolin-6-yl}-1H-pyrrolo[2,3-c]pyridin-7(6H)-one] | 130 nM | 130 nM |
| C[C@@H]1C(=O)N(C)CCN1CCOc1ccc(-c2ccc3cc(-c4cn(C(F)F)c(=O)c5[nH]ccc45)ccc3n2)cc1 [SLU-2297, (R)-6-(difluoromethyl)-4-{2-[4-(2-(2,4-dimethyl-3-oxopiperazin-1-yl)ethoxy)phenyl]quinolin-6-yl}-1H-pyrrolo[2,3-c]pyridin-7(6H)-one] | 1600 nM | 1600 nM |
| Cn1cc(-c2ccc(N3CCC4(CCNCC4)C3)nc2)c2cc[nH]c2c1=O [SLU-2214, 4-[6-(2,8-diazaspiro[4.5]decan-2-yl)pyridin-3-yl]-6-methyl-1H-pyrrolo[2,3-c]pyridin-7(6H)-one] | 95 nM | 95 nM |
| CN1CCN(CCOc2ccc(-c3ccc4cc(-c5cn(C)c(=O)c6[nH]ccc56)ccc4n3)cc2)CC1=O [SLU-2244, 6-methyl-4-{2-[4-(2-(4-methyl-3-oxopiperazin-1-yl)ethoxy)phenyl]quinolin-6-yl}-1H-pyrrolo[2,3-c]pyridin-7(6H)-one] | 28 nM | 28 nM |
| C[C@@H]1C(=O)N(C)CCN1CCOc1ccc(-c2ccc3cc(-c4cn(C)c(=O)c5[nH]ccc45)ccc3n2)cn1 [SLU-2240, (R)-4-{2-[6-(2-(2,4-dimethyl-3-oxopiperazin-1-yl)ethoxy)pyridin-3-yl]quinolin-6-yl}-6-methyl-1,6-dihydro-7H-pyrrolo[2,3-c]pyridin-7-one] | 35 nM | 35 nM |
| COc1cc(-c2ccc(OCCN3[C@H](C)CN(C(C)=O)C[C@@H]3C)cc2)ccc1-c1cn(C)c(=O)c2[nH]ccc12 [SLU-2098, 4-{4′-[2-((2R,6S)-4-acetyl-2,6-dimethylpiperazin-1-yl)ethoxy)-3-methoxy-[1,1′-biphenyl]-4-yl}-6-methyl-1H-pyrrolo[2,3-c]pyridin-7(6H)-one] | 310 nM | 310 nM |
| CN1CCCN(CCOc2ccc(-c3ccc4cc(-c5cn(C)c(=O)c6[nH]ccc56)ccc4n3)cc2)CC1=O [SLU-2300, 6-methyl-4-{2-[4-(2-(4-methyl-3-oxo-1,4-diazepan-1-yl)ethoxy)phenyl]quinolin-6-yl}-1H-pyrrolo[2,3-c]pyridin-7(6H)-one] | 49 nM | 49 nM |
| CCN1CCN(CCOc2ccc(-c3ccc4cc(-c5cn(C)c(=O)c6[nH]ccc56)ccc4n3)cc2)CC1=O [SLU-2243, 4-{2-[4-(2-(4-ethyl-3-oxopiperazin-1-yl)ethoxy)phenyl]quinolin-6-yl}-6-methyl-1H-pyrrolo[2,3-c]pyridin-7(6H)-one] | 110 nM | 110 nM |
